Reference: patent US8623859B2, “Bradykinin B1 antagonists” (Evotec AG, priority 2008, dated 2014)
Counter-ions that a name gives are not always drawn.

molecular target: T1, human B1 (Homo sapiens, UniProt P46663); assay: Calcium flux assay for Bradykinin B1 antagonist, CHO-K1 cell line expressing human B1; format: cell-based; conditions: CHO-K1 cells expressing human B1, agonist Lys-(Des-Arg)-Bradykinin, read-out: Potency (IC50 value against human B1)
T1 construct: host or cells: CHO-K1
T1 sequence (P46663 1-353): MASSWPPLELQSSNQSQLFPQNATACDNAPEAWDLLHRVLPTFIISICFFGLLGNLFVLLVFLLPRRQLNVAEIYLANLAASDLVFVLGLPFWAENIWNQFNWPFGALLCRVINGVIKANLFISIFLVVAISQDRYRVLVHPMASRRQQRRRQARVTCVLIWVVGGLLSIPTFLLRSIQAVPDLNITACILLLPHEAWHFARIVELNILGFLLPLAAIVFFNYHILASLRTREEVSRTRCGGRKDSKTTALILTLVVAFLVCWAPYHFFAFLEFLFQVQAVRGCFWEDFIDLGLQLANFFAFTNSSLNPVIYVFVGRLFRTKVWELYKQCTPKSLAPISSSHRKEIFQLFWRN
How it was run: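 Inhibition of B1 agonist-evoked intracellular Ca2+ rise was followed by continuous fluorescence at 538 nm, with integrated, background-normalized signals plotted versus log compound concentration. Test compounds (eight 10-fold dilutions, triplicate, 1% DMSO final) were added 30 min at 25° C beforehand to Fluo-4AM-loaded human B1 CHO-K1 cells in pH 7.4 assay buffer.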

| Structure (SMILES) | IC50 [nM] |
| --- | --- |
| COc1cc(C)c(S(=O)(=O)N(Cc2nc(C(=O)N3CCC(N(C)C4CCN(C)CC4)C3)co2)C2CC2)c(C)c1 (centres unmarked) [Ex 208, N-Cyclopropyl-4-methoxy-2,6-dimethyl-N-{[4-({3-[methyl(1-methylpiperidin-4-yl)amino]pyrrolidin-1-yl}carbonyl)-1,3-oxazol-2-yl]methyl}benzenesulfonamide trifluoroacetate] | 100 to 1000 |
| COc1cc(C)c(S(=O)(=O)N(Cc2nc(C(=O)N3CC4CN(Cc5ccc(OC)nc5)CC4C3)co2)C2CC2)c(C)c1 (centres unmarked) [Ex 209, N-Cyclopropyl-4-methoxy-N-{[4-({5-[(6-methoxypyridin-3-yl)methyl]hexahydropyrrolo[3,4-c]pyrrol-2(1H)-yl}carbonyl)-1,3-oxazol-2-yl]methyl}-2,6-dimethylbenzenesulfonamide trifluoroacetate] | 100 to 1000 |
| COc1cc(C)c(S(=O)(=O)N(Cc2nc(C(=O)N3CC4CCN(Cc5ccc(OC)nc5)CC4C3)co2)C2CC2)c(C)c1 (centres unmarked) [Ex 210, N-Cyclopropyl-4-methoxy-N-{[4-({5-[(6-methoxypyridin-3-yl)methyl]octahydro-2H-pyrrolo[3,4-c]pyridin-2-yl}carbonyl)-1,3-oxazol-2-yl]methyl}-2,6-dimethylbenzenesulfonamide trifluoroacetate] | 10 to 100 |
| COc1cc(C)c(S(=O)(=O)N(Cc2nc(C(=O)N3CC4CCN(Cc5ccc(N6CCCC6)nc5)CC4C3)co2)C2CC2)c(C)c1 (centres unmarked) [Ex 211, N-Cyclopropyl-4-methoxy-2,6-dimethyl-N-{[4-({5-[(6-pyrrolidin-1-ylpyridin-3-yl)methyl]octahydro-2H-pyrrolo[3,4-c]pyridin-2-yl}carbonyl)-1,3-oxazol-2-yl]methyl}benzenesulfonamide trifluoroacetate] | < 10 |
| COc1cc(C)c(S(=O)(=O)N(Cc2nc(C(=O)N3CCC(N(C)Cc4ccc(OC)nc4)C3)co2)C2CC2)c(C)c1 (centres unmarked) [Ex 212, N-Cyclopropyl-4-methoxy-N-({4-[(3-{[(6-methoxypyridin-3-yl)methyl](methyl)amino}pyrrolidin-1-yl)carbonyl]-1,3-oxazol-2-yl}methyl)-2,6-dimethylbenzenesulfonamide trifluoroacetate] | 100 to 1000 |
| CN(CCc1ccc(C2=NCCN2)cc1)C(=O)c1coc(CN(C2CC2)S(=O)(=O)c2c(Cl)cccc2Cl)n1 [Ex 213, 2-({Cyclopropyl[(2,6-dichlorophenyl)sulfonyl]amino}methyl)-N-{2-[4-(4,5-dihydro-1H-imidazol-2-yl)phenyl]ethyl}-N-methyl-1,3-oxazole-4-carboxamide trifluoroacetate] | 100 to 1000 |
| CN(CCc1ccc(C2=NCCN2)cc1)C(=O)c1coc(CN(C2CC2)S(=O)(=O)c2ccc(Cl)cc2Cl)n1 [Ex 214, 2-({Cyclopropyl[(2,4-dichlorophenyl)sulfonyl]amino}methyl)-N-{2-[4-(4,5-dihydro-1H-imidazol-2-yl)phenyl]ethyl}-N-methyl-1,3-oxazole-4-carboxamide trifluoroacetate] | 100 to 1000 |
| CN(CCc1ccc(C2=NCCN2)cc1)C(=O)c1coc(CN(C2CC2)S(=O)(=O)c2c(Cl)cc(Cl)cc2Cl)n1 [Ex 215, 2-({Cyclopropyl[(2,4,6-trichlorophenyl)sulfonyl]amino}methyl)-N-{2-[4-(4,5-dihydro-1H-imidazol-2-yl)phenyl]ethyl}-N-methyl-1,3-oxazole-4-carboxamide trifluoroacetate] | 10 to 100 |
| CN(Cc1ccc(CN2CCCC2)cc1)C(=O)c1coc(CN(C2CC2)S(=O)(=O)c2c(Cl)cc(Cl)cc2Cl)n1 [Ex 216, 2-({Cyclopropyl[(2,4,6-trichlorophenyl)sulfonyl]amino}methyl)-N-methyl-N-[4-(pyrrolidin-1-ylmethyl)benzyl]-1,3-oxazole-4-carboxamide trifluoroacetate] | 100 to 1000 |
| Cc1cc(S(=O)(=O)N(Cc2nc(C(=O)N(C)CCc3ccc(C4=NCCN4)cc3)co2)C2CC2)c(C)cc1Cl [Ex 217, 2-({[(4-Chloro-2,5-dimethylphenyl)sulfonyl](cyclopropyl)amino}methyl)-N-{2-[4-(4,5-dihydro-1H-imidazol-2-yl)phenyl]ethyl}-N-methyl-1,3-oxazole-4-carboxamide trifluoroacetate] | 100 to 1000 |
| Cc1cc(S(=O)(=O)N(Cc2nc(C(=O)N(C)Cc3ccc(CN4CCCC4)cc3)co2)C2CC2)c(C)cc1Cl [Ex 218, 2-({[(4-Chloro-2,5-dimethylphenyl)sulfonyl](cyclopropyl)amino}methyl)-N-methyl-N-[4-(pyrrolidin-1-ylmethyl)benzyl]-1,3-oxazole-4-carboxamide trifluoroacetate] | 100 to 1000 |
| Cc1cccc(Cl)c1S(=O)(=O)N(Cc1nc(C(=O)N(C)CCc2ccc(C3=NCCN3)cc2)co1)C1CC1 [Ex 219, 2-({[(2-Chloro-6-methylphenyl)sulfonyl](cyclopropyl)amino}methyl)-N-{2-[4-(4,5-dihydro-1H-imidazol-2-yl)phenyl]ethyl}-N-methyl-1,3-oxazole-4-carboxamide trifluoroacetate] | 10 to 100 |
| Cc1cccc(Cl)c1S(=O)(=O)N(Cc1nc(C(=O)N(C)Cc2ccc(CN3CCCC3)cc2)co1)C1CC1 [Ex 220, 2-({[(2-Chloro-6-methylphenyl)sulfonyl](cyclopropyl)amino}methyl)-N-methyl-N-[4-(pyrrolidin-1-ylmethyl)benzyl]-1,3-oxazole-4-carboxamide trifluoroacetate] | 100 to 1000 |
| CN(CCc1ccc(C2=NCCN2)cc1)C(=O)c1coc(CN(C2CC2)S(=O)(=O)c2ccccc2C(F)(F)F)n1 [Ex 221, 2-[(Cyclopropyl{[2-(trifluoromethyl)phenyl]sulfonyl}amino)methyl]-N-{2-[4-(4,5-dihydro-1H-imidazol-2-yl)phenyl]ethyl}-N-methyl-1,3-oxazole-4-carboxamide trifluoroacetate] | 100 to 1000 |
| CN(Cc1ccc(CN2CCCC2)cc1)C(=O)c1coc(CN(C2CC2)S(=O)(=O)c2ccccc2C(F)(F)F)n1 [Ex 222, 2-[(Cyclopropyl{[2-(trifluoromethyl)phenyl]sulfonyl}amino)methyl]-N-methyl-N-[4-(pyrrolidin-1-ylmethyl)benzyl]-1,3-oxazole-4-carboxamide trifluoroacetate] | 100 to 1000 |
| COc1cc(C)c(S(=O)(=O)N(Cc2nc(C(=O)N3CCC(O)(CN4CCN(C)CC4)CC3)co2)C2CC2)c(C)c1 [Ex 223, N-Cyclopropyl-N-{[4-({4-hydroxy-4-[(4-methylpiperazin-1-yl)methyl]piperidin-1-yl}carbonyl)-1,3-oxazol-2-yl]methyl}-4-methoxy-2,6-dimethylbenzenesulfonamide trifluoroacetate] | < 10 |
| COc1cc(C)c(S(=O)(=O)N(Cc2nc(C(=O)N3CCC(O)(CN4CCOCC4)CC3)co2)C2CC2)c(C)c1 [Ex 224, N-Cyclopropyl-N-[(4-{[4-hydroxy-4-(morpholin-4-ylmethyl)piperidin-1-yl]carbonyl}-1,3-oxazol-2-yl)methyl]-4-methoxy-2,6-dimethylbenzenesulfonamide trifluoroacetate] | 10 to 100 |
| COc1cc(C)c(S(=O)(=O)N(Cc2nc(C(=O)N(C)Cc3ccc4c(c3)CN(C)C4)co2)C2CC2)c(C)c1 [Ex 225, 2-({Cyclopropyl[(4-methoxy-2,6-dimethylphenyl)sulfonyl]amino}methyl)-N-methyl-N-[(2-methyl-2,3-dihydro-1H-isoindol-5-yl)methyl]-1,3-oxazole-4-carboxamide trifluoroacetate] | 10 to 100 |
| COc1cc(C)c(S(=O)(=O)N(Cc2nc(C(=O)N3CCN(c4cccnc4)CC3)co2)C2CC2)c(C)c1 [Ex 226, N-Cyclopropyl-4-methoxy-2,6-dimethyl-N-({4-[(4-pyridin-3-ylpiperazin-1-yl)carbonyl]-1,3-oxazol-2-yl}methyl)benzenesulfonamide] | 100 to 1000 |
| COc1cc(C)c(S(=O)(=O)N(Cc2nc(C(=O)N3CCN(Cc4ccccn4)CC3)co2)C2CC2)c(C)c1 [Ex 227, N-Cyclopropyl-4-methoxy-2,6-dimethyl-N-[(4-{[4-(pyridin-2-ylmethyl)piperazin-1-yl]carbonyl}-1,3-oxazol-2-yl)methyl]benzenesulfonamide trifluoroacetate] | 100 to 1000 |
| COc1cc(C)c(S(=O)(=O)N(Cc2nc(C(=O)N3CCN(CCc4ccccn4)CC3)co2)C2CC2)c(C)c1 [Ex 228, N-Cyclopropyl-4-methoxy-2,6-dimethyl-N-[(4-{[4-(2-pyridin-2-ylethyl)piperazin-1-yl]carbonyl}-1,3-oxazol-2-yl)methyl]benzenesulfonamide trifluoroacetate] | 10 to 100 |
| COc1cc(C)c(S(=O)(=O)N(Cc2nc(C(=O)N3CCC(C(=O)N4CCN(C)CC4)CC3)co2)C2CC2)c(C)c1 [Ex 229, N-Cyclopropyl-4-methoxy-2,6-dimethyl-N-{[4-({4-[(4-methylpiperazin-1-yl)carbonyl]piperidin-1-yl}carbonyl)-1,3-oxazol-2-yl]methyl}benzenesulfonamide trifluoroacetate] | 100 to 1000 |
| COc1cc(C)c(S(=O)(=O)N(Cc2nc(C(=O)N3CCN(CC4CCNCC4)CC3)co2)C2CC2)c(C)c1 [Ex 230, N-Cyclopropyl-4-methoxy-2,6-dimethyl-N-[(4-{[4-(piperidin-4-ylmethyl)piperazin-1-yl]carbonyl}-1,3-oxazol-2-yl)methyl]benzenesulfonamide trifluoroacetate] | < 10 |
